The results in this text go back to ChEMBL document CHEMBL2029218, “Structure-based design of novel class II c-Met inhibitors: 2. SAR and kinase selectivity profiles of the pyrazolone series” (J Med Chem, 2012).

Molecules are shown by their SMILES. pIC50, pKi: −log10 of the molar value.

The target in test [1] is Insulin-like growth factor 1 receptor (Homo sapiens, UniProt P08069). Briefly: Inhibition of IGF1R by HTRF assay.
The target of test [2] is Aurora kinase A (Homo sapiens, UniProt O14965). Description: Inhibition of aurora-1.
The target in test [3] is Angiopoietin-1 receptor (Homo sapiens, UniProt Q02763). Description: Inhibition of TIE2.
Test [4] concerns the target Tyrosine-protein kinase JAK3 (Homo sapiens, UniProt P52333). Description: Inhibition of JAK3.
In test [5] the target is Mast/stem cell growth factor receptor Kit (Homo sapiens, UniProt P10721). Description: Inhibition of c-KIT.
Test [6] addresses RAC-alpha serine/threonine-protein kinase (Homo sapiens, UniProt P31749). Description: Inhibition of PKBalpha.
Test [7] deals with Fibroblast growth factor receptor 1 (Homo sapiens, UniProt P11362). Briefly: Inhibition of FGFRK.
Test [8] addresses Tyrosine-protein kinase JAK1 (Homo sapiens, UniProt P23458). Briefly: Inhibition of JAK1.
Test [9] has as its target Tyrosine-protein kinase JAK2 (Homo sapiens, UniProt O60674). Briefly: Inhibition of JAK2.
For test [10], the target named is Serine/threonine-protein kinase pim-1 (Homo sapiens, UniProt P11309). Description: Inhibition of PIM1.
For test [11], the target named is Serine/threonine-protein kinase pim-2 (Homo sapiens, UniProt Q9P1W9). Briefly: Inhibition of PIM2.
Test [12] addresses RAC-beta serine/threonine-protein kinase (Homo sapiens, UniProt P31751). Description: Inhibition of PKBbeta.
Test [13] concerns the target Ribosomal protein S6 kinase beta-1 (Homo sapiens, UniProt P23443). Description: Inhibition of p70S6K.
In test [14] the target is Mitogen-activated protein kinase 3 (Homo sapiens, UniProt P27361). Briefly: Inhibition of ERK1.
The target of test [15] is Ribosomal protein S6 kinase alpha-5 (Homo sapiens, UniProt O75582). Briefly: Inhibition of MSK1.
The target in test [16] is Mitogen-activated protein kinase 14 (Homo sapiens, UniProt Q16539). Description: Inhibition of p38alpha.
Test [17] deals with Vascular endothelial growth factor receptor 2 (Homo sapiens, UniProt P35968). Description: Inhibition of VEGFR2 by HTRF assay.
The target of test [18] is Hepatocyte growth factor receptor (Homo sapiens, UniProt P08581).
Description: Inhibition of c-Met by HTRF assay
Test [19] addresses Macrophage-stimulating protein receptor (Homo sapiens, UniProt Q04912). Description: Inhibition of RON by HTRF assay.
The target of test [20] is Proto-oncogene tyrosine-protein kinase receptor Ret (Homo sapiens, UniProt P07949). Description: Inhibition of RET.
Test [21] deals with Mitogen-activated protein kinase 9 (Homo sapiens, UniProt P45984). Briefly: Inhibition of JNK2.
Test [22] deals with cAMP-dependent protein kinase catalytic subunit alpha (Homo sapiens, UniProt P17612). Description: Inhibition of PKAalpha.
Test [23] concerns the target Cyclin-dependent kinase 5/CDK5 activator 1 (Homo sapiens, UniProt Q00535).

`CC[C@H](O)Cn1c(C)c(C(=O)Nc2ccc(Oc3ccnc4cc(OC)ccc34)c(F)c2)c(=O)n1-c1ccccc1` had a pKi in test [1] of 6.24.

For `COc1cc2nccc(Oc3ccc(NC(=O)c4c(C)n(C)n(-c5ccccc5)c4=O)cc3F)c2cc1OC`, the pIC50 is 6.00 in test [2]; 7.00 in test [3]; 5.00 in test [4]; 7.00 in test [5]; 5.00 in test [6]; 6.00 in test [7]. Further, the pIC50 in test [8] was 5.00; in test [9], 6.00; in [10], 4.60; in [11] it was 4.60; in test [12], 4.60; in test [13] it was 6.00. The figures for the pIC50 in test [14], in [15] and in test [16] were 4.60, 5.00 and 6.00, respectively.

`COc1cc2nccc(Oc3ccc(NC(=O)c4c(C)n(C)n(-c5ccccc5)c4=O)cc3F)c2cc1Br`: the negative logarithm of the Ki (pKi) in test [17] is 7.10; in test [1], 6.83.

`COc1cc2nccc(Oc3ccc(NC(=O)c4c(C)n(C)n(-c5ccccc5)c4=O)cc3F)c2cc1C` gave a pKi in test [1] of 6.84.

As for `CCc1cc2c(Oc3ccc(NC(=O)c4c(C)n(C)n(-c5ccccc5)c4=O)cc3F)ccnc2cc1OC`, the negative logarithm of the Ki (pKi) in [1] was 7.15.

In [1], `COc1cc2nccc(Oc3ccc(NC(=O)c4c(C)n(C)n(-c5ccccc5)c4=O)cn3)c2cc1OC` gave a negative logarithm of the Ki (pKi) of 5.80.

As to `COc1cc2nccc(Oc3ccc(NC(=O)c4c(C)n(C)n(-c5ccccc5)c4=O)c(Cl)c3)c2cc1OC`, the pKi was 7.44 in [17] and 7.58 in test [1].

For the compound `COc1ccc2c(Oc3ccc(NC(=O)c4c(C)n(C)n(-c5ccccc5)c4=O)c(OC)c3)ccnc2c1`, the pKi was 6.15 in test [17] and 7.03 in test [1].

In turn, `COc1cc2nccc(Oc3ccc(NC(=O)c4c(C)n(C)n(-c5ccccc5)c4=O)nc3)c2cc1OC` showed a pKi in test [1] of 6.63.

In test [1], `COc1ccc2c(Oc3ccc(NC(=O)c4c(C)n(C)n(-c5ccccc5)c4=O)nc3)ccnc2c1` showed a pKi of 6.21. Against the preceding compound, the pKi is 0.42 log units lower.

Turning to `COc1ccc2c(Oc3cnc(NC(=O)c4c(C)n(C)n(-c5ccccc5)c4=O)nc3)ccnc2c1`, the results for the negative-log Ki (pKi) in [17], in test [1] and in test [18] were 5.79, 6.66 and 7.78, respectively.

In the case of `COc1ccc2c(Oc3ccc(NC(=O)c4c(CN)n(C)n(-c5ccccc5)c4=O)cc3F)ccnc2c1`, the values for the pKi in [17] and in [1] were 6.27 and 6.03, respectively.

`COc1ccc2c(Oc3ccc(NC(=O)c4c(CNC(=O)OC(C)(C)C)n(C)n(-c5ccccc5)c4=O)cc3F)ccnc2c1` had a negative logarithm of the Ki (pKi) in test [1] of less than 5.18.

`CCN(C)Cc1c(C(=O)Nc2ccc(Oc3ccnc4cc(OC)ccc34)c(F)c2)c(=O)n(-c2ccccc2)n1C` showed a pKi in [1] of 6.13.

On to `COc1ccc2c(Oc3ccc(NC(=O)c4c(CN5CCCC5)n(C)n(-c5ccccc5)c4=O)cc3F)ccnc2c1`, for which, in [1], the pKi was 5.74.

As for `COc1ccc2c(Oc3ccc(NC(=O)c4c(CN5CCCC5)n(C)n(-c5ccccc5)c4=O)nc3)ccnc2c1`, in test [1], the negative-log Ki (pKi) was 6.05.

With `COc1ccc2c(Oc3ccc(NC(=O)c4c(C(C)(C)N)n(C)n(-c5ccccc5)c4=O)cc3F)ccnc2c1`, the pKi in test [1] was 5.51.

As for `COc1ccc2c(Oc3ccc(NC(=O)c4c([C@@H]5CCCN5)n(C)n(-c5ccccc5)c4=O)cc3F)ccnc2c1`, the pKi is 5.65 in [17] and 6.17 in test [1].

As to `COc1ccc2c(Oc3ccc(NC(=O)c4c([C@@H]5CCCN5)n(C)n(-c5ccccc5)c4=O)nc3)ccnc2c1`, the pKi was less than 5.18 in [17] and 6.02 in test [1].

`COc1ccc2c(Oc3ccc(NC(=O)c4c(C5CCOCC5)n(C)n(-c5ccccc5)c4=O)cc3F)ccnc2c1` had a negative-log Ki (pKi) in test [1] of 6.84.

With `COc1ccc2c(Oc3ccc(NC(=O)c4c(C5CCOCC5)n(C)n(-c5ccccc5)c4=O)nc3)ccnc2c1`, the pKi in test [17] is 5.57; in [1] it was 7.37.

In the case of `COc1ccc2c(Oc3ccc(NC(=O)c4c(-c5ccncc5)n(C)n(-c5ccccc5)c4=O)nc3)ccnc2c1`, the pKi in test [17] was less than 5.18; in test [1] it was 7.44.

As to `COc1ccc2c(Oc3ccc(NC(=O)c4c(-c5ccccn5)n(C)n(-c5ccccc5)c4=O)nc3)ccnc2c1`, the pKi in [17] is 5.86; in test [1] it was 7.73.

Regarding `COc1ccc2c(Oc3ccc(NC(=O)c4c(-c5cccnc5)n(C)n(-c5ccccc5)c4=O)nc3)ccnc2c1`, the negative-log Ki (pKi) is 5.55 in [17] and 7.57 in test [1].

For `COc1ccc2c(Oc3ccc(NC(=O)c4c(-c5cnccn5)n(C)n(-c5ccccc5)c4=O)nc3)ccnc2c1`, the pKi was 5.33 in [17] and 7.06 in test [1].

With `COc1ccc2c(Oc3ccc(NC(=O)c4c(-c5cc(C)on5)n(C)n(-c5ccccc5)c4=O)nc3)ccnc2c1`, the pKi is 6.30 in [17] and 7.51 in [1].

Consider `COc1ccc2c(Oc3ccc(NC(=O)c4c(-c5csc(C)n5)n(C)n(-c5ccccc5)c4=O)nc3)ccnc2c1`, for which the pKi in test [17] is 6.23; in test [1] it was 7.61.

In the case of `CCn1c(C)c(C(=O)Nc2ccc(Oc3ccnc4cc(OC)ccc34)c(F)c2)c(=O)n1-c1ccccc1`, the pKi in test [1] was 6.25.

`CCn1c(C)c(C(=O)Nc2ccc(Oc3ccnc4cc(OC)ccc34)cn2)c(=O)n1-c1ccccc1` had a pKi in [1] of 6.15.

Turning to `CCCn1c(C)c(C(=O)Nc2ccc(Oc3ccnc4cc(OC)ccc34)cn2)c(=O)n1-c1ccccc1`, the pKi in test [1] was 6.14. This pKi and that of the compound before are within 0.2 log units of each other.

Compound `C=C(C)Cn1c(C)c(C(=O)Nc2ccc(Oc3ccnc4cc(OC)ccc34)c(F)c2)c(=O)n1-c1ccccc1` gave a pKi in [1] of 6.60.

In test [1], `COc1ccc2c(Oc3ccc(NC(=O)c4c(C)n(CCN)n(-c5ccccc5)c4=O)cc3F)ccnc2c1` gave a negative-log Ki (pKi) of 6.06.

`COc1ccc2c(Oc3ccc(NC(=O)c4c(C)n(CCO)n(-c5ccccc5)c4=O)cc3F)ccnc2c1` showed a negative logarithm of the Ki (pKi) in test [1] of 6.06.

`COc1ccc2c(Oc3ccc(NC(=O)c4c(C)n(CCO)n(-c5ccccc5)c4=O)nc3)ccnc2c1` had a negative-log Ki (pKi) in test [1] of 5.96.

`COCCn1c(C)c(C(=O)Nc2ccc(Oc3ccnc4cc(OC)ccc34)cn2)c(=O)n1-c1ccccc1`: the pKi in test [1] was 5.54.

Take `COc1ccc2c(Oc3ccc(NC(=O)c4c(C)n(CC(C)O)n(-c5ccccc5)c4=O)nc3)ccnc2c1` (stereo unspecified): in [1], the pKi is 5.89.

In test [1], `COc1ccc2c(Oc3ccc(NC(=O)c4c(C)n(CC(O)C(C)C)n(-c5ccccc5)c4=O)cc3F)ccnc2c1` (stereo unspecified) gave a negative logarithm of the Ki (pKi) of 6.20.

The compound `COc1ccc2c(Oc3ccc(NC(=O)c4c(C)n(CC(O)CN)n(-c5ccccc5)c4=O)cc3F)ccnc2c1` (stereo unspecified) gave a negative logarithm of the Ki (pKi) in test [1] of 6.98. Against the preceding compound, the pKi is 0.78 log units higher.

Consider `COc1ccc2c(Oc3ccc(NC(=O)c4c(C)n(CC5CNC(=O)O5)n(-c5ccccc5)c4=O)cc3F)ccnc2c1` (stereo unspecified), for which the negative logarithm of the Ki (pKi) in [1] is 5.78.

`COc1ccc2c(Oc3ccc(NC(=O)c4c(C)n(CC(C)(C)O)n(-c5ccccc5)c4=O)cc3F)ccnc2c1`: in test [1], the negative-log Ki (pKi) was 6.05.

Consider `COc1ccc2c(Oc3ccc(NC(=O)c4c(C)n(CC(C)C)n(-c5ccccc5)c4=O)cc3F)ccnc2c1`, for which the pKi in test [1] was 6.04.

The compound `COc1ccc2c(Oc3ccc(NC(=O)c4c(C)n(C)n(-c5ccccc5)c4=O)cc3F)ccnc2c1` gave a negative logarithm of the Ki (pKi) in test [1] of 6.75.

Regarding `CCCn1c(C)c(C(=O)Nc2ccc(Oc3ccnc4cc(OC)ccc34)c(F)c2)c(=O)n1-c1ccccc1`, in test [1], the pKi is 6.38.

In turn, `COc1ccc2c(Oc3ccc(NC(=O)c4c(C)n(C[C@H](C)O)n(-c5ccccc5)c4=O)cc3F)ccnc2c1` showed a negative logarithm of the Ki (pKi) in [1] of 6.16.

Take `COc1ccc2c(Oc3ccc(NC(=O)c4c(C)n(CC(C)(C)O)n(-c5ccccc5)c4=O)nc3)ccnc2c1`: the pIC50 was 8.00 in test [19]; 5.00 in test [5]; 5.00 in test [6]; 4.60 in test [7]; 4.60 in test [8]; 4.60 in test [9]. For the same compound, the negative-log IC50 (pIC50) in [10] was 4.60; in [11], 4.60; in [12], 4.60; in test [20], 4.60; in test [13], 4.60; in test [14] it was 4.00. For the same compound, the pIC50 is 4.00 in [21]; 4.00 in test [15]; 4.00 in [16]; 4.00 in test [22]; 4.00 in [23]; 8.00 in test [18]. Also, the pKi in test [18] is 9.00.

`COc1ccc2c(Oc3ccc(NC(=O)c4c(C)n(C[C@@H](C)O)n(-c5ccccc5)c4=O)cc3F)ccnc2c1` showed a negative logarithm of the Ki (pKi) in [1] of 6.13.

In test [1], `COc1ccc2c(Oc3ccc(NC(=O)c4c(C5CCCO5)n(C)n(-c5ccccc5)c4=O)cc3F)ccnc2c1` (racemic) showed a pKi of 6.72.

Consider `COc1ccc2c(Oc3ccc(NC(=O)c4c(C5CCOC5)n(C)n(-c5ccccc5)c4=O)cc3F)ccnc2c1` (racemic), for which, in test [1], the negative-log Ki (pKi) is 6.60.

`COc1ccc2c(Oc3ccc(NC(=O)c4c(C)n(CC(C)O)n(-c5ccccc5)c4=O)cc3F)ccnc2c1` (racemic): the negative-log Ki (pKi) in test [1] is 5.88.
